Structures are written as SMILES.

The values that follow come from patent USRE30633E, “3-Lower alkylcarbamylsulfonamido-4-phenylaminopyridines, n-oxides, derivatives thereof and pharmaceutical compositions containing same” (A. Christiaens Societe Anonyme, priority 1974, dated 1981).

One test deals with paw of rats. The test is described as follows: Pharmacological test for anti-inflammatory properties (carrageenan rat paw swelling). Format: in vivo. The settings on record: oral 1 hour before carrageenan (0.05 ml of 1%), swelling 4 hours after injection by plethysmography, dose not given. As to the method:
1. Pharmacological test for anti-inflammatory properties.
The compounds to be tested are given as freshly prepared solutions or suspensions by oral route 1 hour before injecting the paw of rats with carrageenan which is a known inflammatory agent.
The inflammatory agent (carrageenan) either in solution or suspension is then injected into the plantar tissue of the right hind paw of each rat, the left paw remaining untreated and serving as control. Each animal receives, for example, 0.05 ml of an aqueous solution containing 1% by weight of carrageenan and 0.9% of sodium chloride.
4 hours after the injection of the inflammatory agent, the importance of swelling is determined by plethysmography and is expressed as a percent of the volume of the control paw.
The anti-inflammatory effect expressed as a percentage of inhibition is obtained by comparison between rats treated with the anti-inflammatory compound and a control group of rats.

For the next test, the system named is rats. The test is described as follows: Pharmacological test for diuretic properties (urine volume). Format: in vivo. The following applies: 50 mg/kg gastric gavage, 25 ml/kg saline s.c., urine collected 4 hours, ml/kg of body weight. As to the method: 2. Pharmacological tests for diuretic properties Lots of 3 rats weighting 250-300 g have been constituted at random, each of them being submitted to the same treatment. The compound to be tested was administered by .[.gastric gavage at a dose of 50 ml/kg as a solution or a.]. .Iadd.gastric gavage at a dose of 50 mg/kg as a solution or a .[…].suspension in water containing 0.45% of methylcellulose (which is an inert mucilaginous substance). Control animals received only distilled water as a placebo. At the same time, all the animals received 25 ml/kg of physiological saline by subcutaneous injection. The rats were then placed in metabolic cages, each cage containing 3 animals receiving the same treatment. The urines have been collected during 4 hours. […] The diuresis is expressed in ml/kg of body weight.

With `O=C(Nc1ccccc1)NS(=O)(=O)c1cnccc1Nc1cccc(Cl)c1` [JDL 390, 3-phenylcarbamylsulfonamido-4-(3'-chloro)-phenylaminopyridine], in the test with paw of rats, the “% inhibition of acute oedema” value turned out to be 47.2%. In the test on rats, this molecule registered a Diuresis of 16.9 mL/kg.
Turning to `O=C(Nc1ccc(Cl)cc1)NS(=O)(=O)c1cnccc1Nc1cccc(Cl)c1` [JDL 391, 3-parachlorophenylcarbamylsulfonamido-4-(3'-chloro)-phenylaminopyridine], in the test with paw of rats, the “% inhibition of acute oedema” value was determined as 74.4%. The Diuresis in the test with rats is 9.6 mL/kg.
For `CNC(=O)NS(=O)(=O)c1cnccc1Nc1ccccc1Cl` [JDL 402, 3-methylcarbamylsulfonamidio-4-(2'-chloro)-phenylaminopyridine], the “% inhibition of acute oedema” value in the test with paw of rats came out at 76.8%. In the test with rats, this molecule showed a Diuresis of 65.4 mL/kg.
Take `CCNC(=O)NS(=O)(=O)c1cnccc1Nc1ccccc1Cl` [JDL 403, 3-ethylcarbamylsulfonamido-4-(2'-chloro)-phenylaminopyridine]: in the test with paw of rats, the “% inhibition of acute oedema” value came to 76.8%. In the test on rats, this molecule displayed a Diuresis of 74.9 mL/kg.
The like results for `CCCNC(=O)NS(=O)(=O)c1cnccc1Nc1ccccc1Cl` [JDL 404, 3-propylcarbamylsulfonamido-4-(2'-chloro)-phenylaminopyridine] were, in that order, 76.8% and 43.1 mL/kg.
The like results for `CC(C)NC(=O)NS(=O)(=O)c1cnccc1Nc1cccc(Cl)c1` [JDL 413, 3-isopropylcarbamylsulfonamido-4-(3'-chloro)-phenylaminopyridine] were, in that order, 76.8% and 92.5 mL/kg.
For the molecule `CC(C)NC(=O)NS(=O)(=O)c1cnccc1Nc1cccc(C(F)(F)F)c1` [JDL 414, 3-isopropylcarbamylsulfonamido-4-(3'-trifluoromethyl)-phenylaminopyridine], the “% inhibition of acute oedema” value in the test with paw of rats turned out to be 75.2%. Besides, the Diuresis in the test with rats came to 82.9 mL/kg.
The like results for `CNC(=O)NS(=O)(=O)c1cnccc1Nc1ccc(Cl)cc1` [JDL 415, 3-methylcarbamylsulfonamido-4-(4'-chloro)-phenylaminopyridine] were, in that order, 75.2% and 47.0 mL/kg.
For `CCNC(=O)NS(=O)(=O)c1cnccc1Nc1ccc(Cl)cc1` [JDL 416, 3-ethylcarbamylsulfonamido-4-(4'-chloro)-phenylaminopyridine], the “% inhibition of acute oedema” value in the test with paw of rats was determined as 85.6%. The molecule also registered a Diuresis with rats of 52.8 mL/kg.
With `CCCNC(=O)NS(=O)(=O)c1cnccc1Nc1ccc(Cl)cc1` [JDL 417, 3-propylcarbamylsulfonamido-4-(4'-chloro)-phenylaminopyridine], the “% inhibition of acute oedema” value in the test with paw of rats is listed as 72.8%. Further, the Diuresis with rats amounted to 58.3 mL/kg.
In the case of `CCNC(=S)NS(=O)(=O)c1cnccc1Nc1cccc(C(F)(F)F)c1` [JDL 420, 3-ethylthiocarbamylsulfonamido-4-(3'trifluoromethyl)-phenylaminopyridine], in the test with paw of rats, the “% inhibition of acute oedema” value amounted to 52.8%. Further, the Diuresis in the test with rats came to 65.0 mL/kg.
`CC(C)NC(=O)NS(=O)(=O)c1cnccc1Nc1ccccc1Cl` [JDL 421, 3-isopropylcarbamylsulfonamido-4-(2'-chloro)-phenylaminopyridine]: the “% inhibition of acute oedema” value in the test with paw of rats was 88.8%. The molecule further gave a Diuresis in the test on rats of 72.0 mL/kg.
With `CCCCNC(=O)NS(=O)(=O)c1cnccc1Nc1ccccc1Cl` [JDL 422, 3-butylcarbamylsulfonamido-4(2'-chloro)-phenylaminopyridine], the “% inhibition of acute oedema” value with paw of rats was 46.4%. Further, in the test with rats, the Diuresis amounted to 56.7 mL/kg.
The like results for `CC(C)NC(=O)NS(=O)(=O)c1cnccc1Nc1ccc(Cl)cc1` [JDL 423, 3-isopropylcarbamylsulfonamido-4-(4'-chloro)-phenylaminopyridine] were, in that order, 64.0% and 68.7 mL/kg.
Regarding `CCCCNC(=O)NS(=O)(=O)c1cnccc1Nc1ccc(Cl)cc1` [JDL 424, 3-butylcarbamylsulfonamido-4-(4'-chloro)-phenylaminopyridine], the “% inhibition of acute oedema” value with paw of rats was 50.4%. The same molecule had a Diuresis in the test on rats of 21.0 mL/kg.
With `CC(C)(C)NC(=O)NS(=O)(=O)c1cnccc1Nc1ccc(Cl)cc1` [JDL 425, 3-tertiobutylcarbamylsulfonamido-4-(4'-chloro)-phenylaminopyridine], the “% inhibition of acute oedema” value with paw of rats is recorded as 42.4%. The Diuresis in the test with rats is 37.7 mL/kg.
For the molecule `O=C(NC1CCCCC1)NS(=O)(=O)c1cnccc1Nc1ccc(Cl)cc1` [JDL 426, 3-cyclohexylcarbamylsulfonamido-4-(4'-chloro)-phenylaminopyridine], the “% inhibition of acute oedema” value in the test with paw of rats is 73.6%. The molecule also showed a Diuresis with rats of 22.0 mL/kg.
With `CC(C)(C)NC(=O)NS(=O)(=O)c1cnccc1Nc1ccccc1Cl` [JDL 427, 3-tertiobutylcarbamylsulfonamido-4-(2'-chloro)-phenylaminopyridine], in the test with paw of rats, the “% inhibition of acute oedema” value came to 53.6%. Further, in the test with rats, the Diuresis came out at 11.4 mL/kg.
`O=C(NC1CCCCC1)NS(=O)(=O)c1cnccc1Nc1ccccc1Cl` [JDL 428, 3-cyclohexylcarbamylsulfonamido-4-(2'-chloro)-phenylamionpyridine]: the “% inhibition of acute oedema” value in the test on paw of rats was determined as 17.6%. In the test with rats, this molecule yielded a Diuresis of 15.6 mL/kg.
For `CCNC(=O)NS(=O)(=O)c1cnccc1Nc1cccc(C)c1` [JDL 463, 3-ethylcarbamylsulfonamido-4-(3'-methyl)-phenylaminopyridine], in the test on paw of rats, the “% inhibition of acute oedema” value is given as 73.6%. For the same molecule, the Diuresis in the test on rats was found to be 76.1 mL/kg.
For `Cc1cccc(Nc2ccncc2S(=O)(=O)NC(=O)NC(C)C)c1` [JDL 464, 3-isopropylcarbamylsulfonamido-4-(3'-methyl)-phenylaminopyridine], in the test on paw of rats, the “% inhibition of acute oedema” value turned out to be 76.8%. In addition, in the test on rats, the Diuresis worked out at 81.6 mL/kg.
Regarding `CCNC(=O)NS(=O)(=O)c1cnccc1Nc1cccc(F)c1` [JDL 465, 3-ethylcarbamylsulfonamido-4-(3'-fluoro)-phenylaminopyridine], the “% inhibition of acute oedema” value with paw of rats is reported as 71.2%. Besides, the Diuresis in the test on rats amounted to 76.7 mL/kg.
In the case of `CC(C)NC(=O)NS(=O)(=O)c1cnccc1Nc1cccc(F)c1` [JDL 466, 3-isopropylcarbamylsulfonamido-4-(3'-fluoro)-phenylaminopyridine], the “% inhibition of acute oedema” value in the test on paw of rats was found to be 68.0%. The molecule also registered a Diuresis in the test with rats of 70.7 mL/kg.
In the case of `CCNC(=O)NS(=O)(=O)c1cnccc1Nc1cccc(Br)c1` [JDL 467, 3-ethylcarbamylsulfonamido-4-(3'-bromo)-phenylaminopyridine], the “% inhibition of acute oedema” value with paw of rats worked out at 69.6%. The Diuresis with rats was determined as 65.8 mL/kg.
For the molecule `CC(C)NC(=O)NS(=O)(=O)c1cnccc1Nc1cccc(Br)c1` [JDL 468, 3-isopropylcarbamylsulfonamido-4-(3'-bromo)-phenylaminopyridine], the “% inhibition of acute oedema” value in the test on paw of rats was 72.0%. In the test with rats, the Diuresis was 77.2 mL/kg.
As to `CCNC(=O)NS(=O)(=O)c1cnccc1Nc1cccc(OC)c1` [JDL 469, 3-ethylcarbamylsulfonamido-4-(3'-methoxy)-phenylaminopyridine], the “% inhibition of acute oedema” value in the test on paw of rats is reported as 60.8%. Moreover, in the test with rats, the Diuresis was 46.9 mL/kg.
For `COc1cccc(Nc2ccncc2S(=O)(=O)NC(=O)NC(C)C)c1` [JDL 470, 3-isopropylcarbamylsulfonamido-4-(3'-methoxy)-phenylaminopyridine], the “% inhibition of acute oedema” value in the test with paw of rats was 83.2%. Besides, the Diuresis in the test on rats was found to be 74.9 mL/kg.
With `CCNC(=O)NS(=O)(=O)c1cnccc1NCc1ccco1` [JDL 471, 3-ethylcarbamylsulfonamido-4-methylfurylaminopyridine], in the test with paw of rats, the “% inhibition of acute oedema” value was 70.4%. In the test on rats, this molecule registered a Diuresis of 37.7 mL/kg.
`CC(C)NC(=O)NS(=O)(=O)c1cnccc1NCc1ccco1` [JDL 472, 3-isopropylcarbamylsulfonamido-4-methylfurylaminopyridine]: in the test on paw of rats, the “% inhibition of acute oedema” value worked out at 54.4%. In addition, in the test with rats, the Diuresis was 69.6 mL/kg.
For `CCNC(=O)NS(=O)(=O)c1cnccc1Nc1cc(Cl)cc(Cl)c1` [JDL 473, 3-ethylcarbamylsulfonamido-4-(3',5'-dichloro)-phenylaminopyridine], the “% inhibition of acute oedema” value in the test with paw of rats worked out at 41.6%. In the test on rats, this molecule gave a Diuresis of 24.0 mL/kg.
The like results for `CCNC(=O)NS(=O)(=O)c1cnccc1Nc1ccc(Cl)c(Cl)c1` [JDL 475, 3-ethylcarbamylsulfonamido-4-(3',4'-dichloro)-phenylaminopyridine] were, in that order, 79.2% and 34.3 mL/kg.
As for `CC(C)NC(=O)NS(=O)(=O)c1cnccc1Nc1ccc(Cl)c(Cl)c1` [JDL 476, 3-isopropylcarbamylsulfonamido-4-(3',4'-dichloro)-phenylaminopyridine], in the test with paw of rats, the “% inhibition of acute oedema” value is reported as 92.0%. In the test on rats, this molecule had a Diuresis of 42.1 mL/kg.
`CNC(=S)NS(=O)(=O)c1cnccc1Nc1cccc(Cl)c1` [JDL 477, 3-methylthiocarbamylsulfonamido-4-(3'-chloro)-phenylaminopyridine]: the “% inhibition of acute oedema” value with paw of rats is given as 61.6%. In the test on rats, this molecule had a Diuresis of 43.6 mL/kg.
